According to US20180002320A1, “USE OF MACROCYCLIC PICOLINAMIDES AS FUNGICIDES” (DOW AGROSCIENCES LLC, priority 2014, published 2018):
Read-outs that look alike come from different tables or passages of the source.

How the values were obtained:
Zymoseptoria tritici = assay: Leaf Blotch of Wheat (SEPTTR) fungicidal activity; type: in vivo; settings: Low Volume (121.5 g/H)
Procedure: Technical grades of materials were dissolved in acetone, which were then mixed with nine volumes of H2O containing 110 ppm Triton X-100. The fungicide solutions were applied onto wheat seedlings using an automated booth sprayer to run-off. All sprayed plants were allowed to air dry prior to further handling. All fungicides were evaluated using the aforementioned method for their activity vs. all target diseases, unless stated otherwise. Wheat leaf blotch and brown rust activity were also evaluated using track spray applications, in which case the fungicides were formulated as EC formulations, containing 0.1% Trycol 5941 in the spray solutions. Wheat plants (variety Yuma) were grown from seed in a greenhouse in 50% mineral soil/50% soil-less Metro mix until the first leaf was fully emerged, with 7-10 seedlings per pot. These plants were inoculated with an aqueous spore suspension of Zymoseptoria tritici either prior to or after fungicide treatments. After inoculation the plants were kept in 100% relative humidity (one day in a dark dew chamber followed by two to three days in a lighted dew chamber at 20° C.) to permit spores to germinate and infect the leaf. The plants were then transferred to a greenhouse set at 20° C. for disease to develop. When disease symptoms were fully expressed on the 1st leaves of untreated plants, infection levels were assessed on a scale of 0 to 100 percent disease severity. Percent disease control was calculated using the ratio of disease severity on treated plants relative to untreated plants.

Puccinia triticina = assay: Wheat Brown Rust (PUCCRT) fungicidal activity; type: in vivo; settings: Low Volume (121.5 g/H)
Procedure: Technical grades of materials were dissolved in acetone, which were then mixed with nine volumes of H2O containing 110 ppm Triton X-100. The fungicide solutions were applied onto wheat seedlings using an automated booth sprayer to run-off. All sprayed plants were allowed to air dry prior to further handling. All fungicides were evaluated using the aforementioned method for their activity vs. all target diseases, unless stated otherwise. Wheat leaf blotch and brown rust activity were also evaluated using track spray applications, in which case the fungicides were formulated as EC formulations, containing 0.1% Trycol 5941 in the spray solutions. Wheat plants (variety Yuma) were grown from seed in a greenhouse in 50% mineral soil/50% soil-less Metro mix until the first leaf was fully emerged, with 7-10 seedlings per pot. These plants were inoculated with an aqueous spore suspension of Puccinia triticina either prior to or after fungicide treatments. After inoculation the plants were kept in a dark dew room at 22° C. with 100% relative humidity overnight to permit spores to germinate and infect the leaf. The plants were then transferred to a greenhouse set at 24° C. for disease to develop. Fungicide formulation, application and disease assessment followed the procedures as described in the Example A.

[1] = 24 h, 1 Day Protectant, read-out: SEPTTR 1DP disease control
[2] = 72 h, 3 Day Curative, read-out: SEPTTR 3DC disease control
[3] = 24 h, 1 Day Protectant, read-out: PUCCRT 1DP disease control
[4] = 72 h, 3 Day Curative, read-out: PUCCRT 3DC disease control

Row | SMILES | pest or weed control at 121.5 g/ha (Zymoseptoria tritici; [1]) [%] | pest or weed control at 121.5 g/ha (Zymoseptoria tritici; [2]) [%] | pest or weed control at 121.5 g/ha (Puccinia triticina; [3]) [%] | pest or weed control at 121.5 g/ha (Puccinia triticina; [4]) [%]
1 | CCC[C@H]1CCCC[C@H](NC(=O)c2nccc(OC)c2OCOC(C)=O)C(=O)O[C@@H](C)[C@@H]1OCC(C)C [Cmpd 30, ((2-(((3S,8S,9R,10S)-9-isobutoxy-10-methyl-2-oxo-8-propyloxecan-3-yl)carbamoyl)-4-methoxypyridin-3-yl)oxy)methyl acetate] | < 80 | < 80 | > 80 | < 80
2 | COc1ccnc(C(=O)N[C@H]2COCC[C@H](OCc3ccccc3)[C@@H](OCc3ccccc3)[C@H](C)OC2=O)c1OCOC(C)=O [Compound 1] | > 80 | < 80 | > 80 | 
3 | CCCCO[C@H]1CCOC[C@H](NC(=O)c2nccc(OC)c2OCOC(C)=O)C(=O)O[C@@H](C)[C@@H]1OCc1ccccc1 [Compound 2] | < 80 |  | > 80 | > 80
4 | CCCCO[C@H]1CCOC[C@H](NC(=O)c2nccc(OC)c2OCOC(C)=O)C(=O)O[C@@H](C)[C@@H]1OC(=O)c1ccccc1 [Compound 4] | < 80 |  | > 80 | > 80
5 | COc1ccnc(C(=O)N[C@H]2CCCC[C@H](OCc3ccccc3)[C@@H](OCc3ccccc3)[C@H](C)OC2=O)c1OCOC(C)=O [Compound 8] | > 80 | > 80 | > 80 | > 80
6 | COc1ccnc(C(=O)N[C@H]2CCCC[C@H](OCc3ccccc3)[C@@H](OCc3ccccc3)[C@H](C)OC2=O)c1OC(C)=O [Compound 9] | > 80 | > 80 | > 80 | < 80
7 | COc1ccnc(C(=O)N[C@H]2CCCC[C@H](OC)[C@@H](Oc3ccccc3)[C@H](C)OC2=O)c1OCOC(C)=O [Compound 11] | > 80 | > 80 | > 80 | > 80
8 | COc1ccnc(C(=O)N[C@H]2CCCC[C@H](OCC(C)C)[C@@H](Oc3ccccc3)[C@H](C)OC2=O)c1OCOC(C)=O [Compound 13] | > 80 | > 80 | > 80 | > 80
9 | COc1ccnc(C(=O)N[C@H]2CCCC[C@H](OCC(C)C)[C@@H](OCC(C)C)[C@H](C)OC2=O)c1OCOC(C)=O [Compound 14] | > 80 | < 80 | > 80 | < 80
10 | CCCCCO[C@H]1[C@H](C)OC(=O)[C@@H](NC(=O)c2nccc(OC)c2OCOC(C)=O)CCCC[C@@H]1OC(=O)c1ccccc1 [Compound 15] | > 80 | > 80 | > 80 | < 80
11 | COc1ccnc(C(=O)N[C@H]2CCOC[C@H](Cc3ccccc3)[C@@H](OCC(C)C)[C@H](C)OC2=O)c1OCOC(C)=O [Compound 16] | < 80 | < 80 | > 80 | < 80
12 | COc1ccnc(C(=O)N[C@H]2CCCC[C@H](Oc3ccccc3)[C@@H](Oc3ccccc3)[C@H](C)OC2=O)c1OCOC(C)=O [Compound 19] | > 80 | > 80 | > 80 | > 80
13 | COc1ccnc(C(=O)N[C@H]2COCC[C@H](Cc3ccccc3)[C@@H](OCC(C)C)[C@H](C)OC2=O)c1OCOC(C)=O [Compound 20] | < 80 | > 80 | > 80 | > 80
14 | COc1ccnc(C(=O)N[C@H]2COCC[C@H](Cc3ccccc3)[C@@H](OCC(C)C)[C@H](C)OC2=O)c1OC(C)=O [Compound 21] | < 80 | > 80 | > 80 | > 80
15 | COc1ccnc(C(=O)N[C@H]2CCCC[C@H](OC)[C@@H](OC)[C@H](C)OC2=O)c1OCOC(C)=O [Compound 22] |  | < 80 | > 80 | > 80
16 | CCCO[C@H]1CCCC[C@H](NC(=O)c2nccc(OC)c2OCOC(C)=O)C(=O)O[C@@H](C)[C@@H]1Oc1ccccc1 [Compound 23] | > 80 | > 80 | > 80 | > 80
17 | COc1ccnc(C(=O)N[C@H]2CCCC[C@H](Cc3ccccc3)[C@@H](OCC(C)C)[C@H](C)OC2=O)c1OCOC(C)=O [Compound 24] | > 80 | > 80 | > 80 | < 80
18 | COc1ccnc(C(=O)N[C@H]2CCCC[C@H](Oc3ccccc3)[C@@H](Oc3ccccc3)[C@H](C)OC2=O)c1OC(C)=O [Compound 25] | > 80 | < 80 | > 80 | < 80
19 | CCCO[C@H]1CCCC[C@H](NC(=O)c2nccc(OC)c2OC(C)=O)C(=O)O[C@@H](C)[C@@H]1Oc1ccccc1 [Compound 26] | > 80 | > 80 | > 80 | > 80
20 | COc1ccnc(C(=O)N[C@H]2CCCC[C@H](OC)[C@@H](OC)[C@H](C)OC2=O)c1OC(C)=O [Compound 27] | < 80 |  | > 80 | > 80
21 | COc1ccnc(C(=O)N[C@H]2CCCC[C@H](OC)[C@@H](OCC(C)C)[C@H](C)OC2=O)c1OC(C)=O [Compound 28] | < 80 | > 80 | > 80 | > 80
22 | COc1ccnc(C(=O)N[C@H]2CCCC[C@@H]3OC(C)(C)O[C@H]3[C@H](C)OC2=O)c1OC(C)=O [Compound 29] | < 80 | > 80 | > 80 | > 80
23 | CCC[C@H]1CCCC[C@H](NC(=O)c2nccc(OC)c2OCOC(C)=O)C(=O)O[C@@H](C)[C@@H]1OC(=O)C(C)C [Compound 31] | < 80 | < 80 | > 80 | < 80
24 | COc1ccc(CO[C@H]2[C@H](C)OC(=O)[C@@H](NC(=O)c3nccc(OC)c3OCOC(C)=O)CCOC[C@@H]2OCc2ccc(OC)cc2)cc1 [Compound 32] |  | < 80 |  | < 80
25 | COc1ccnc(C(=O)N[C@H]2CCCC[C@@H]3OC(C)(C)O[C@H]3[C@H](C)OC2=O)c1OCOC(C)=O [Compound 33] | < 80 | > 80 | > 80 | > 80
26 | COc1ccnc(C(=O)N[C@H]2CCCC[C@H](OC)[C@@H](OC3CCCC3)[C@H](C)OC2=O)c1OCOC(C)=O [Compound 34] | < 80 | > 80 | > 80 | > 80
27 | COc1ccnc(C(=O)N[C@H]2CCCC[C@H](OC3CCCC3)[C@@H](OC)[C@H](C)OC2=O)c1OCOC(C)=O [Compound 35] |  |  | > 80 | < 80
28 | COc1ccnc(C(=O)N[C@H]2CCCC[C@H](Oc3ccccc3)[C@@H](OC3CCCC3)[C@H](C)OC2=O)c1OCOC(C)=O [Compound 36] | < 80 | < 80 | > 80 | > 80
29 | COc1ccnc(C(=O)N[C@H]2CCOC[C@H](OCC(C)C)[C@@H](OCC(C)C)[C@H](C)OC2=O)c1OCOC(C)=O [Compound 43] |  |  | > 80 | < 80
